According to US6649636B1, “Heteroaryl phenyl pyrazole compounds as anti-inflammatory/analgesic agents” (Pfizer Inc., priority 1999, dated 2003):

For Cc1cc(-c2cc(C(F)F)nn2-c2ccc(S(C)(=O)=O)cn2)ccc1-c1cscn1 [Example 27], the melting point was 156.9 °C. For Cc1cc(-c2cc(C(F)(F)F)nn2-c2ccc(S(C)(=O)=O)cn2)ccc1-c1ncco1 [Example 28], the melting point was 174.5 to 176 °C. Work on CS(=O)(=O)c1ccc(-n2nc(C(F)(F)F)cc2-c2ccc(-c3ccc(Cl)s3)cc2)cn1 [Example 34] yielded a melting point of 155 to 156 °C. Cc1cc(-c2cc(C(F)(F)F)nn2-c2ccc(S(C)(=O)=O)c(F)n2)ccc1-c1cscn1 [Example 25] showed a melting point of 158.9 °C. Cc1nc(-c2ccc(-c3cc(C(F)(F)F)nn3-c3ccc(S(C)(=O)=O)nc3)cc2)cs1 [Example 32] gave a melting point of 176.9 °C. Compound CS(=O)(=O)c1ccc(-n2nc(C(F)(F)F)cc2-c2ccc(-c3cscn3)cc2Cl)nc1 [Example 22] has a melting point of 166.1 °C. CS(=O)(=O)c1ccc(-n2nc(C(F)(F)F)cc2-c2ccc(-c3cscn3)cc2F)nc1 [Example 21] gave a melting point of 194.3 °C. For CS(=O)(=O)c1ccc(-n2nc(C(F)(F)F)c(F)c2-c2ccc(-c3cscn3)cc2)cn1 [Example 7], the melting point was 170.5 to 171 °C. For CS(=O)(=O)c1ccc(-n2nc(C(F)(F)F)cc2-c2ccc(-c3cscn3)cc2)nc1 [Example 18], the melting point was 210 to 211 °C. For Cc1cc(-c2cc(C(F)(F)F)nn2-c2ccc(S(C)(=O)=O)cn2)ccc1-c1ccco1 [Example 15], the melting point was 160 to 161.1 °C. In the case of CS(=O)(=O)c1ccc(-n2nc(C(F)(F)F)cc2-c2ccc(-c3ccco3)cc2)nn1 [Example 36], the melting point is reported as 209 to 212 °C. For Cc1cc(-c2cc(C(F)(F)F)nn2-c2ccc(S(C)(=O)=O)cn2)ccc1-c1cnn[nH]1 [Example 30], the melting point was 189 °C. Work on CCc1cc(-c2cc(C(F)(F)F)nn2-c2ccc(S(C)(=O)=O)cn2)ccc1-c1cscn1 [Example 23] yielded a melting point of 165.8 °C. Work on CCc1c(C(F)(F)F)nn(-c2ccc(S(C)(=O)=O)cn2)c1-c1ccc(-c2cscn2)c(C)c1 [Example 13] yielded a melting point of 163 to 164 °C. Cc1cc(-c2cc(C(F)(F)C(F)(F)F)nn2-c2ccc(S(C)(=O)=O)nc2)ccc1-c1cscn1 [Example 4] gave a melting point of 120.8 °C. Work on Cc1cc(-c2cc(C(F)(F)F)nn2-c2ccc(S(C)(=O)=O)cn2)ccc1-c1ccsc1 [Example 16] yielded a melting point of 165 to 166 °C. Cc1cc(-c2c(C#N)cnn2-c2ccc(S(C)(=O)=O)cn2)ccc1-c1cscn1 [Example 11] gave a melting point of 223 to 224 °C. For CS(=O)(=O)c1ccc(-n2nc(C(F)(F)F)cc2-c2ccc(-c3cscn3)c(Cl)c2)nc1 [Example 19], the melting point was 175.6 °C. For Cc1cc(-c2cc(C(F)(F)F)nn2-c2ccc(S(C)(=O)=O)cn2)ccc1-c1cscn1 [Example 2], the melting point was 179 to 182 °C. With CS(=O)(=O)c1ccc(-n2nc(C(F)(F)F)cc2-c2ccc(-c3ccco3)cc2)cn1 [Example 1, 5-[4-(2-Furyl)phenyl]-1-[2-(methylsulfonylpyridin)-5-yl]-3-trifluoromethyl-1H-pyrazole] the melting point was 106 to 109 °C. With CS(=O)(=O)c1cnc(-n2nc(C(F)(F)F)cc2-c2ccc(-c3ccco3)cc2)s1 [Example 37] the melting point was 188 to 190 °C. Work on CS(=O)(=O)c1ccc(-n2nc(C(F)(F)F)cc2-c2ccc(-c3cscn3)c(F)c2)nc1 [Example 24] yielded a melting point of 187.5 °C. Compound Cc1cc(-c2cc(C(F)(F)F)nn2-c2ccc(S(C)(=O)=O)cn2)ccc1-c1nn[nH]n1 [Example 29] has a melting point of 241 to 242 °C. Work on Cc1cc(-c2c(Cl)c(C(F)(F)F)nn2-c2ccc(S(C)(=O)=O)nc2)ccc1-c1cscn1 [Example 5] yielded a melting point of 81 to 83 °C. For Cc1ccc(-c2ccc(-c3cc(C(F)(F)F)nn3-c3ccc(S(C)(=O)=O)nc3)cc2)s1 [Example 35], the melting point was 123 to 124 °C. With COC(=O)c1cc(-c2ccc(-c3cscn3)c(C)c2)n(-c2ccc(S(C)(=O)=O)cn2)n1 [Example 12] the melting point was 144 to 145 °C. With Cc1cc(-c2cc(C(F)(F)F)nn2-c2ccc(S(C)(=O)=O)cn2)c(C)cc1-c1cscn1 [Example 10] the melting point was 214 to 215 °C. Compound Cc1cc(-c2cc(C(F)(F)F)nn2-c2ccc(S(C)(=O)=O)cn2)ccc1-c1cocn1 [Example 9] has a melting point of 154 to 155 °C. For COc1cc(-c2cc(C(F)(F)F)nn2-c2ccc(S(C)(=O)=O)cn2)ccc1-c1cscn1 [Example 20], the melting point was 170 to 175 °C. For CS(=O)(=O)c1ccc(-n2nc(C(F)(F)F)cc2-c2ccc(-c3cscn3)c(Cl)c2)cn1 [Example 17], the melting point was 95 to 100 °C.
